Assays:
[1] = refractive index (other wavelength) (dimensionless); conditions: 101.33 kPa, Liquid, Wavelength=632.8 nm, Standard Abbe refractometry
[2] = 101.33 kPa, Liquid, Vibrating tube method
[3] = refractive index (other wavelength) (dimensionless); xn = mol fraction of the nth substance listed; conditions: 101.33 kPa, Liquid, Wavelength=632.8 nm, Standard Abbe refractometry

COC(=O)CCCCC(=O)OC [dimethyl 1,6-hexanedioate]
Conditions | mass density [kg/m3] | refractive index
[1], 283.48 K | – | 1.4312
[1], 284.37 K | – | 1.4309
[1], 285.28 K | – | 1.4305
[1], 286.1 K | – | 1.4302
[1], 286.92 K | – | 1.4298
[1], 287.65 K | – | 1.4296
[1], 288.49 K | – | 1.4292
[2], 281.15 K | 1073.09 | –
[2], 282.15 K | 1072.12 | –
[2], 283.15 K | 1071.14 | –
[2], 284.15 K | 1070.17 | –
[2], 285.15 K | 1069.19 | –
[2], 286.15 K | 1068.21 | –
[2], 287.15 K | 1067.24 | –
[2], 288.15 K | 1066.26 | –
[2], 289.15 K | 1065.29 | –
[2], 290.15 K | 1064.32 | –
[2], 291.15 K | 1063.34 | –
[2], 292.15 K | 1062.37 | –
[2], 293.15 K | 1061.39 | –
[2], 294.15 K | 1060.42 | –
[2], 295.15 K | 1059.45 | –
[2], 296.15 K | 1058.47 | –
[2], 297.15 K | 1057.5 | –
[2], 298.15 K | 1056.52 | –
[2], 299.15 K | 1055.55 | –
[2], 300.15 K | 1054.58 | –
[2], 301.15 K | 1053.6 | –
[2], 302.15 K | 1052.63 | –
[2], 303.15 K | 1051.65 | –
[2], 304.15 K | 1050.68 | –
[2], 305.15 K | 1049.7 | –
[2], 306.15 K | 1048.73 | –
[2], 307.15 K | 1047.75 | –
[2], 308.15 K | 1046.78 | –

COC(=O)CCCCC(=O)OC [dimethyl 1,6-hexanedioate] + CCCCCC
[3], 289.28 K
Conditions | refractive index
x1 = 0.101 | 1.3821
x1 = 0.202 | 1.3884
x1 = 0.301 | 1.3944
x1 = 0.394 | 1.3998
x1 = 0.5 | 1.4056
x1 = 0.599 | 1.4107
x1 = 0.706 | 1.416
x1 = 0.799 | 1.4203
x1 = 0.882 | 1.4239

CCCCCCC [heptane] + COC(=O)CCCCC(=O)OC
[3], x2 = 0
Conditions | refractive index
289.62 K | 1.3883
290.68 K | 1.3878
291.71 K | 1.3873
292.7 K | 1.3868
293.74 K | 1.3863
294.71 K | 1.3858
295.77 K | 1.3853

CCCCCC [hexane]
[1]
Conditions | refractive index
283.72 K | 1.3789
284.52 K | 1.3785
285.35 K | 1.3781
286.21 K | 1.3776
287.1 K | 1.3771
287.94 K | 1.3767
288.71 K | 1.3762

From the NIST ThermoML archive (doi:10.1016/j.jct.2011.12.024)
